# US9949479B2 (priority 2015, dated 2018)
# Several values for one entry are separate records, joined by “and”; a condition that tells them apart may be missing. Identical values can stand only once. Like-named read-outs stand apart in the source and are kept apart here.
# Columns and labels:
# [1] = test system: Fusarium graminearum; experiment: microbe, parasite or virus in culture; type: cell-based; conditions: for inhibition at 50 µg/mL: Fusarium graminearum; for Average Fungal Colony Diameter F.g: sensitive strains
# [2] = test system: Fusarium asiaticum; experiment: microbe, parasite or virus in culture; type: cell-based
# [3] = test system: DON toxin biosynthesis of carbendazim-resistant fusarium asiaticum; experiment: microbe, parasite or virus in culture; type: cell-based; conditions: Fusarium asiaticum, read-out: DON Biosynthesis Inhibition Rate
# [4] = test system: powdery mildew fungus; type: in vivo; conditions: seed treatment; dose as in E133
# [5] = test system: leaf rust fungus; type: in vivo; conditions: seed treatment; dose as in E133
# [6] = test system: powdery mildew; type: in vivo; conditions: dose as in E145
# [7] = test system: rust; type: in vivo; conditions: dose as in E145
# [8] = set-up: species or system wheat; conditions: in vivo
# [9] = test system: leaf blight; type: in vivo; conditions: dose as in E154
# [10] = test system: powdery mildew; type: in vivo; conditions: dose as in E154
# [11] = type: in vivo, wheat; conditions: dose as in E162
# [12] = test system: wheat scab; type: in vivo, Fusarium spp.
# [13] = test system: leaf blight; type: in vivo
# [14] = test system: powdery mildew; type: in vivo
# [15] = test system: rust; type: in vivo
# [16] = type: in vivo, wheat
# [17] = test system: leaf blight; type: in vivo; remark: listed apart in the source
# [18] = test system: rust; type: in vivo; remark: listed apart in the source
# [19] = set-up: species or system wheat; conditions: in vivo; remark: listed apart in the source
# [20] = test system: wheat scab; type: in vivo, Fusarium spp.; remark: listed apart in the source
# [21] = test system: leaf blight; type: in vivo; remark: listed apart in the source
# [22] = test system: powdery mildew; type: in vivo; remark: listed apart in the source
# [23] = test system: rust; type: in vivo; remark: listed apart in the source
# [24] = test system: wheat scab; type: in vivo, Fusarium spp.; conditions: Serial 5: preparation 100; jinggangmycin 20, metconazole 0 g ai./mu
# [25] = test system: powdery mildew; type: in vivo; conditions: Serial 5: preparation 100; jinggangmycin 20, metconazole 0 g ai./mu
# [26] = test system: rust; type: in vivo; conditions: Serial 5: preparation 100; jinggangmycin 20, metconazole 0 g ai./mu
# [27] = test system: wheat scab; type: in vivo, Fusarium spp.; remark: listed apart in the source
# [28] = test system: powdery mildew; type: in vivo; remark: listed apart in the source
# [29] = Serial 11: jinggangmycin 36 g ai./mu alone
# [30] = Serial 12: jinggangmycin 18 g ai./mu alone
# [31] = Serial 13: jinggangmycin 15 g ai./mu alone
# [32] = Serial 14: jinggangmycin 7.5 g ai./mu alone
# [33] = Serial 15: jinggangmycin 5 g ai./mu alone
# [34] = Serial 16: jinggangmycin 2.5 g ai./mu alone
# [35] = Serial 17: jinggangmycin 3 g ai./mu alone
# [36] = Serial 18: jinggangmycin 1.5 g ai./mu alone
# [37] = Serial 19: jinggangmycin 1 g ai./mu alone
# [38] = Serial 20: jinggangmycin 0.5 g ai./mu alone
# [39] = Serial 5: preparation 100 g/mu, jinggangmycin 20 g ai./mu alone
# [40] = Serial 6: preparation 80 g/mu, jinggangmycin 16 g ai./mu alone
# [41] = Serial 7: preparation 40 g/mu, jinggangmycin 8 g ai./mu alone
# [42] = Serial 8: preparation 20 g/mu, jinggangmycin 4 g ai./mu alone
# [43] = Serial 5: preparation 50 g/mu, jinggangmycin 10 g ai./mu alone
# [44] = Serial 6: preparation 37.5 g/mu, jinggangmycin 7.5 g ai./mu alone
# [45] = Serial 7: preparation 15 g/mu, jinggangmycin 3 g ai./mu alone
# [46] = Serial 5: preparation 75 g/mu, jinggangmycin 15 g ai./mu alone
# [47] = Serial 6: preparation 60 g/mu, jinggangmycin 12 g ai./mu alone
# [48] = Serial 7: preparation 45 g/mu, jinggangmycin 9 g ai./mu alone
# [49] = Serial 8: preparation 30 g/mu, jinggangmycin 6 g ai./mu alone
smiles,measurement,setting,value
"OCC1=C[C@H](NC2C[C@H](CO)[C@@H](OC3O[C@H](CO)[C@@H](O)[C@H](O)[C@H]3O)[C@H](O)[C@H]2O)[C@H](O)[C@@H](O)[C@@H]1O (stereo partly shown) [Jinggangmycin A, jinggangmycin A]",inhibition at 50 µg/mL,[1]; read-out: Growth Inhibition Rate F.g,6.5%
same,inhibition at 50 µg/mL,[1]; read-out: inhibitory effect on the growth of the two types of fusaria,6.5 to 7.8%
same,Average Fungal Colony Diameter F.g,[1]; Jinggangmycin A 0.1 μg/mL,76.3 mm
same,Average Fungal Colony Diameter F.g,[1]; Jinggangmycin A 1.0 μg/mL,76.2 mm
same,Average Fungal Colony Diameter F.g,[1]; Jinggangmycin A 10.0 μg/mL,75.4 mm
same,Average Fungal Colony Diameter F.g,[1]; Jinggangmycin A 50.0 μg/mL,70.3 mm
same,Average Fungal Colony Diameter F.a,[2],76.3 mm and 75.6 mm and 69.4 mm
same,inhibition at 50 µg/mL,"[2]; Fusarium asiaticum, read-out: Growth Inhibition Rate F.a",7.8%
same,inhibition at 1 µg/mL,[3]; 168 h,28.6%
same,inhibition at 10 µg/mL,[3]; 168 h,35.5%
same,inhibition at 100 µg/mL,[3]; 168 h,45.2%
same,inhibition at 1000 µg/mL,[3]; 168 h,65.5%
same,inhibition at 10000 µg/mL,[3]; 168 h,75.9%
same,inhibition at 1 µg/mL,[3]; 336 h,1.7%
same,inhibition at 10 µg/mL,[3]; 336 h,7.87%
same,inhibition at 100 µg/mL,[3]; 336 h,29.9%
same,inhibition at 1000 µg/mL,[3]; 336 h,57%
same,inhibition at 10000 µg/mL,[3]; 336 h,75.4%
same,Incidence Prevention Effect % Powdery Mildew,[4],0% and 6.5%
same,Incidence Prevention Effect % Rust,[5],0% and 4.5%
same,Disease Index Prevention Effect % Powdery Mildew,[6],7.5% and 4.5% and 0%
same,Disease Index Prevention Effect % Rust,[7],4.9% and 3.8% and 0%
same,Thousand Kernel Weight,[8],43.2 g and 42.8 g and 42.9 g and 42.6 g and 42.0 g and 39.6 g
same,Disease Index Prevention Effect % Leaf Blight,[9],0% and 6.9%
same,Disease Index Prevention Effect % Powdery Mildew,[10],0% and 3.4%
same,Grain Toxin Content,[11],2.89 μg/g of kernels and 3.24 μg/g of kernels and 3.86 μg/g of kernels and 4.20 μg/g of kernels and 4.77 μg/g of kernels
same,Disease Index Prevention Effect % Head Blight,[12]; [29],31.6%
same,Disease Index Prevention Effect % Head Blight,[12]; [30],28.9%
same,Disease Index Prevention Effect % Head Blight,[12]; [31],24.3%
same,Disease Index Prevention Effect % Head Blight,[12]; [32],16.9%
same,Disease Index Prevention Effect % Head Blight,[12]; [33],5.2%
same,Disease Index Prevention Effect % Head Blight,[12]; [34],0%
same,Disease Index Prevention Effect % Head Blight,[12]; [35],0%
same,Disease Index Prevention Effect % Head Blight,[12]; [36],0%
same,Disease Index Prevention Effect % Head Blight,[12]; [37],0%
same,Disease Index Prevention Effect % Head Blight,[12]; [38],0%
same,Disease Index Prevention Effect % Leaf Blight,[13]; [29],5.8%
same,Disease Index Prevention Effect % Leaf Blight,[13]; [30],5.0%
same,Disease Index Prevention Effect % Leaf Blight,[13]; [31],4.6%
same,Disease Index Prevention Effect % Leaf Blight,[13]; [32],0%
same,Disease Index Prevention Effect % Leaf Blight,[13]; [33],0%
same,Disease Index Prevention Effect % Leaf Blight,[13]; [34],0%
same,Disease Index Prevention Effect % Leaf Blight,[13]; [35],0%
same,Disease Index Prevention Effect % Leaf Blight,[13]; [36],0%
same,Disease Index Prevention Effect % Leaf Blight,[13]; [37],0%
same,Disease Index Prevention Effect % Leaf Blight,[13]; [38],0%
same,Disease Index Prevention Effect % Powdery Mildew,[14]; [29],8.5%
same,Disease Index Prevention Effect % Powdery Mildew,[14]; [30],7.8%
same,Disease Index Prevention Effect % Powdery Mildew,[14]; [31],7.6%
same,Disease Index Prevention Effect % Powdery Mildew,[14]; [32],0%
same,Disease Index Prevention Effect % Powdery Mildew,[14]; [33],0%
same,Disease Index Prevention Effect % Powdery Mildew,[14]; [34],0%
same,Disease Index Prevention Effect % Powdery Mildew,[14]; [35],0%
same,Disease Index Prevention Effect % Powdery Mildew,[14]; [36],0%
same,Disease Index Prevention Effect % Powdery Mildew,[14]; [37],0%
same,Disease Index Prevention Effect % Powdery Mildew,[14]; [38],0%
same,Disease Index Prevention Effect % Rust,[15]; [29],7.6%
same,Disease Index Prevention Effect % Rust,[15]; [30],7.2%
same,Disease Index Prevention Effect % Rust,[15]; [31],7.2%
same,Disease Index Prevention Effect % Rust,[15]; [32],0%
same,Disease Index Prevention Effect % Rust,[15]; [33],0%
same,Disease Index Prevention Effect % Rust,[15]; [34],0%
same,Disease Index Prevention Effect % Rust,[15]; [35],0%
same,Disease Index Prevention Effect % Rust,[15]; [36],0%
same,Disease Index Prevention Effect % Rust,[15]; [37],0%
same,Disease Index Prevention Effect % Rust,[15]; [38],0%
same,Grain Toxin Content (mg of DON/Kg of grain),[16]; [29],2.61 mg of DON/Kg of grain
same,Rate of Decrease in Toxin Content in Grains (%),[16]; [29],59.6%
same,Grain Toxin Content (mg of DON/Kg of grain),[16]; [30],2.86 mg of DON/Kg of grain
same,Rate of Decrease in Toxin Content in Grains (%),[16]; [30],55.7%
same,Grain Toxin Content (mg of DON/Kg of grain),[16]; [31],2.94 mg of DON/Kg of grain
same,Rate of Decrease in Toxin Content in Grains (%),[16]; [31],54.5%
same,Grain Toxin Content (mg of DON/Kg of grain),[16]; [32],3.42 mg of DON/Kg of grain
same,Rate of Decrease in Toxin Content in Grains (%),[16]; [32],47.1%
same,Grain Toxin Content (mg of DON/Kg of grain),[16]; [33],3.86 mg of DON/Kg of grain
same,Rate of Decrease in Toxin Content in Grains (%),[16]; [33],40.2%
same,Grain Toxin Content (mg of DON/Kg of grain),[16]; [34],3.92 mg of DON/Kg of grain
same,Rate of Decrease in Toxin Content in Grains (%),[16]; [34],39.3%
same,Grain Toxin Content (mg of DON/Kg of grain),[16]; [35],3.96 mg of DON/Kg of grain
same,Rate of Decrease in Toxin Content in Grains (%),[16]; [35],38.7%
same,Grain Toxin Content (mg of DON/Kg of grain),[16]; [36],4.82 mg of DON/Kg of grain
same,Rate of Decrease in Toxin Content in Grains (%),[16]; [36],25.4%
same,Grain Toxin Content (mg of DON/Kg of grain),[16]; [37],5.80 mg of DON/Kg of grain
same,Rate of Decrease in Toxin Content in Grains (%),[16]; [37],10.2%
same,Grain Toxin Content (mg of DON/Kg of grain),[16]; [38],5.86 mg of DON/Kg of grain
same,Rate of Decrease in Toxin Content in Grains (%),[16]; [38],9.3%
same,Disease Index Prevention Effect % Leaf Blight,[17]; [39],8.6%
same,Disease Index Prevention Effect % Leaf Blight,[17]; [40],8.8%
same,Disease Index Prevention Effect % Leaf Blight,[17]; [41],5.8%
same,Disease Index Prevention Effect % Leaf Blight,[17]; [42],0%
same,Disease Index Prevention Effect % Rust,[18]; [39],6.8%
same,Disease Index Prevention Effect % Rust,[18]; [40],6.5%
same,Disease Index Prevention Effect % Rust,[18]; [41],0%
same,Disease Index Prevention Effect % Rust,[18]; [42],0%
same,Thousand Kernel Weight,[19],39.2 g and 41.1 g and 39.8 g and 39.5 g
same,Disease Index Prevention Effect % Head Blight,[20]; [43],32.4%
same,Disease Index Prevention Effect % Head Blight,[20]; [44],24.2%
same,Disease Index Prevention Effect % Head Blight,[20]; [45],0%
same,Disease Index Prevention Effect % Leaf Blight,[21]; [43],8.6%
same,Disease Index Prevention Effect % Leaf Blight,[21]; [44],8.8%
same,Disease Index Prevention Effect % Leaf Blight,[21]; [45],5.8%
same,Disease Index Prevention Effect % Powdery Mildew,[22]; [43],12.6%
same,Disease Index Prevention Effect % Powdery Mildew,[22]; [44],11.9%
same,Disease Index Prevention Effect % Powdery Mildew,[22]; [45],0%
same,Disease Index Prevention Effect % Rust,[23]; [43],6.8%
same,Disease Index Prevention Effect % Rust,[23]; [44],6.5%
same,Disease Index Prevention Effect % Rust,[23]; [45],0%
same,Disease Index Prevention Effect % Head Blight,[24],34.2%
same,Disease Index Prevention Effect % Powdery Mildew,[25],10.6%
same,Disease Index Prevention Effect % Rust,[26],6.5%
same,Disease Index Prevention Effect % Head Blight,[27]; [46],34.2%
same,Disease Index Prevention Effect % Head Blight,[27]; [47],10.2%
same,Disease Index Prevention Effect % Head Blight,[27]; [48],9.4%
same,Disease Index Prevention Effect % Head Blight,[27]; [49],7.4%
same,Disease Index Prevention Effect % Powdery Mildew,[28]; [46],8.6%
same,Disease Index Prevention Effect % Powdery Mildew,[28]; [47],6.6%
same,Disease Index Prevention Effect % Powdery Mildew,[28]; [48],3.0%
same,Disease Index Prevention Effect % Powdery Mildew,[28]; [49],1.8%
